Laboratory results as given in PubChem BioAssay AID248 (DTP/NCI, 2004).
Where “and” joins values, the source holds several entries; their conditions need not be identical. Equal values may be shown once. Inconclusive results and toxic doses are left out. Rule as the data show it: active = T/C of 150% or more; inactive = T/C below 125%.

System: L1210 leukemia ip in BDF1 mice, survival T/C
Experiment: NCI In Vivo Anticancer Drug Screen. Data for tumor model L1210 Leukemia (intraperitoneal) in B6D2F1 (BDF1) mice
Conditions: endpoint: mean survival time, higher = longer survival
In short: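 Survival endpoint. Drug-treated group vs vehicle group, expressed as T divided by C. Tumor passaged by transplantation.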

[1] = dose: 100.0 mg/kg/injection, schedule: Q04DX003 (ip), vehicle: saline with Tween-80
[2] = dose: 200.0 mg/kg/injection, schedule: Q04DX003 (ip), vehicle: saline with Tween-80
[3] = dose: 400.0 mg/kg/injection, schedule: Q04DX003 (ip), vehicle: saline with Tween-80
[4] = dose: 100.0 mg/kg/injection, schedule: Q01DX001 (ip), vehicle: saline
[5] = dose: 200.0 mg/kg/injection, schedule: Q01DX001 (ip), vehicle: saline
[6] = dose: 400.0 mg/kg/injection, schedule: Q01DX001 (ip), vehicle: saline
[7] = dose: 25.0 mg/kg/injection, schedule: Q01DX009 (ip), vehicle: saline with Tween-80
[8] = dose: 50.0 mg/kg/injection, schedule: Q01DX009 (ip), vehicle: saline with Tween-80
[9] = dose: 100.0 mg/kg/injection, schedule: Q01DX009 (ip), vehicle: saline with Tween-80
[10] = dose: 200.0 mg/kg/injection, schedule: Q01DX009 (ip), vehicle: saline with Tween-80
[11] = dose: 5.0 mg/kg/injection, schedule: Q01DX001 (ip), vehicle: saline
[12] = dose: 10.0 mg/kg/injection, schedule: Q01DX001 (ip), vehicle: saline
[13] = dose: 25.0 mg/kg/injection, schedule: Q04DX002 (ip), vehicle: saline with Tween-80
[14] = dose: 100.0 mg/kg/injection, schedule: Q04DX003 (ip), vehicle: Klucel (hydroxypropylcellulose) (HPC)
[15] = dose: 200.0 mg/kg/injection, schedule: Q04DX003 (ip), vehicle: Klucel (hydroxypropylcellulose) (HPC)

Measured: T/C

C#CC(=O)OCC
inactive: dose: 12.5 mg/kg/injection, schedule: Q04DX003 (ip), vehicle: saline with Tween-80 103 % of control | dose: 25.0 mg/kg/injection, schedule: Q01DX001 (ip), vehicle: saline with Tween-80 105 % of control | dose: 25.0 mg/kg/injection, schedule: Q04DX003 (ip), vehicle: saline with Tween-80 106 % of control | dose: 50.0 mg/kg/injection, schedule: Q01DX001 (ip), vehicle: saline with Tween-80 108 % of control | dose: 50.0 mg/kg/injection, schedule: Q04DX003 (ip), vehicle: saline with Tween-80 119 % of control

O=C1OC(=O)C2C3CC(C(Br)C3Br)C12 (centres undefined)
inactive: [1] 102 % of control | [2] 98 % of control | [3] 101 % of control

O=COC1CC2CC1c1ccccc12 (centres undefined)
inactive: dose: 50.0 mg/kg/injection, schedule: Q01DX001 (ip), vehicle: saline 105 % of control | [4] 105 % of control | [5] 105 % of control | [6] 105 % of control

CSC(=O)N=Nc1c(O)n(C)c(=O)n(C)c1=O
inactive: dose: 12.5 mg/kg/injection, schedule: Q01DX009 (ip), vehicle: saline with Tween-80 104 % of control | [7] 97 % of control | [8] 97 % of control and 87 % of control

CCCCCCCCCCCCCCSCCO
inactive: dose: 100.0 mg/kg/injection, schedule: Q01DX009 (ip), vehicle: carboxymethylcellulose (CMC) 103 % of control | dose: 200.0 mg/kg/injection, schedule: Q01DX009 (ip), vehicle: carboxymethylcellulose (CMC) 102 % of control

CCCCCCCCCCOS(C)=O (centres undefined)
inactive: [8] 100 % of control | [9] 92 % of control | [10] 88 % of control

c1ccc2c(c1)cc[n+]1c3ccccc3ccc21
inactive: dose: 1.25 mg/kg/injection, schedule: Q01DX001 (ip), vehicle: saline 97 % of control | dose: 2.5 mg/kg/injection, schedule: Q01DX001 (ip), vehicle: saline 97 % of control | [11] 103 % of control | [12] 107 % of control

ClCC#Cc1ccccc1
inactive: dose: 12.0 mg/kg/injection, schedule: Q01DX009 (ip), vehicle: saline 100 % of control | dose: 25.0 mg/kg/injection, schedule: Q01DX009 (ip), vehicle: saline 100 % of control | dose: 50.0 mg/kg/injection, schedule: Q01DX009 (ip), vehicle: saline 101 % of control | dose: 100.0 mg/kg/injection, schedule: Q04DX003 (ip), vehicle: saline 103 % of control | dose: 200.0 mg/kg/injection, schedule: Q04DX003 (ip), vehicle: saline 92 % of control | dose: 400.0 mg/kg/injection, schedule: Q04DX003 (ip), vehicle: saline 91 % of control

CC(C)NCCCN
inactive: [13] 98 % of control | dose: 50.0 mg/kg/injection, schedule: Q04DX002 (ip), vehicle: saline with Tween-80 98 % of control | [4] 103 % of control | dose: 100.0 mg/kg/injection, schedule: Q04DX002 (ip), vehicle: saline with Tween-80 101 % of control and 106 % of control | [5] 109 % of control

CCCc1nnnn1C12CC3CC(CC(C3)C1)C2
inactive: [4] 102 % of control | [5] 100 % of control | [6] 93 % of control

COc1cc2c(cc1OC)C1=[N+](CCC1)CC2
inactive: dose: 75.0 mg/kg/injection, schedule: Q01DX001 (ip), vehicle: saline 101 % of control | dose: 100.0 mg/kg/injection, schedule: Q01DX001 (ip), vehicle: carboxymethylcellulose (CMC) 97 % of control | dose: 150.0 mg/kg/injection, schedule: Q01DX001 (ip), vehicle: saline 102 % of control | dose: 200.0 mg/kg/injection, schedule: Q01DX001 (ip), vehicle: carboxymethylcellulose (CMC) 94 % of control | dose: 400.0 mg/kg/injection, schedule: Q01DX001 (ip), vehicle: carboxymethylcellulose (CMC) 100 % of control

CC1C(=O)CCC2(C)CCCCC12 (centres undefined)
inactive: dose: 75.0 mg/kg/injection, schedule: Q01DX001 (ip), vehicle: other 103 % of control | dose: 150.0 mg/kg/injection, schedule: Q01DX001 (ip), vehicle: other 101 % of control | dose: 300.0 mg/kg/injection, schedule: Q01DX001 (ip), vehicle: other 103 % of control

O=C1Nc2ccccc2CS1
inactive: [4] 100 % of control | [5] 97 % of control | [6] 94 % of control

CC(C)C(NC(=O)NCCCl)c1ccccc1 (centres undefined)
inactive: [14] 88 % of control | [15] 88 % of control

Nc1ccc(OCCCCNC(=O)c2ccc(S(=O)(=O)F)cc2)c(Cl)c1
inactive: [9] 98 % of control | [1] 97 % of control | [10] 102 % of control | [2] 97 % of control | [3] 97 % of control

c1cc(N2CCOCC2)cc(NC2CCCCC2)n1
inactive: [11] 95 % of control | [12] 104 % of control | dose: 20.0 mg/kg/injection, schedule: Q01DX001 (ip), vehicle: saline 97 % of control | dose: 40.0 mg/kg/injection, schedule: Q01DX001 (ip), vehicle: saline 103 % of control | dose: 80.0 mg/kg/injection, schedule: Q01DX001 (ip), vehicle: saline 98 % of control

CC/S(=N\S(=O)(=O)c1ccc(C)cc1)c1ccccc1 (centres undefined)
inactive: [9] 108 % of control | [10] 100 % of control | dose: 400.0 mg/kg/injection, schedule: Q01DX009 (ip), vehicle: saline with Tween-80 100 % of control

NC(CCO)C(=O)O (centres undefined)
inactive: dose: 50.0 mg/kg/injection, schedule: Q04DX002 (ip), vehicle: saline 96 % of control | dose: 100.0 mg/kg/injection, schedule: Q04DX002 (ip), vehicle: saline 96 % of control | dose: 200.0 mg/kg/injection, schedule: Q04DX002 (ip), vehicle: saline 100 % of control

Cc1ccc(-n2c(=S)[nH]c3ccccc3c2=O)cc1
inactive: [7] 92 % of control | [8] 90 % of control | [9] 87 % of control

Nc1ccc2c(c1)-n1cccc1C2=O
inactive: [14] 104 % of control | [15] 101 % of control

CN1CCC(C[CH2][Sn]([c]2ccccc2)([c]2ccccc2)[c]2ccccc2)CC1
inactive: [13] 100 % of control

Nc1ncnc2c1ncn2C1OC(COP(=O)(O)OP(=O)(O)OP(=O)(O)O)C(O)C1O (centres undefined)
inactive: dose: 80.0 mg/kg/injection, schedule: Q01DX Z (ip), vehicle: saline 87 % of control | dose: 120.0 mg/kg/injection, schedule: Q01DX Z (ip), vehicle: saline 87 % of control | dose: 180.0 mg/kg/injection, schedule: Q01DX Z (ip), vehicle: saline 95 % of control | dose: 270.0 mg/kg/injection, schedule: Q01DX Z (ip), vehicle: saline 98 % of control

O=C(C=C(C(F)(F)Cl)C(F)(F)Cl)c1cccs1
inactive: dose: 5.0 mg/kg/injection, schedule: Q01DX009 (ip), vehicle: saline 95 % of control | dose: 10.0 mg/kg/injection, schedule: Q01DX009 (ip), vehicle: saline 88 % of control
